Source: patent publication US8921383B2, “Thiazolopyrimidine compounds” (Hoffmann-La Roche Inc., priority 2011, dated 2014)

Biological target: T1, purified recombinant human SYK360-635 (Homo sapiens, UniProt P43405)
T1 construct: truncated construct of Spleen Tyrosine Kinase aa 360-635; GST; made in house
Assay: SYK kinase assay: 33P γATP incorporation into biotinylated peptide substrate, IC50 determination
Format: biochemical
Conditions: SYK 0.5 nM, ATP 20 μM, DYE peptide 5 μM, 30° C. 15 min; read-out: IC50 h-syk-gst-sf9-c (inactive-dephosphorylated)
Method: Determination of IC50 of Spleen Tyrosine Kinase (SYK) Inhibition:
SYK kinase assay is a standard kinase assay adapted to a 96 well plate format. This assay is performed in 96-well format for IC50 determination with […] which represented 10 half log dilutions and a 40 μL reaction volume. The assay measures the incorporation of radiolabeled ^33P γATP into an N-terminally biotinylated peptide substrate, derived from naturally occurring phosphoacceptor consensus sequence (Biotin-11aa DY*E). Phosphorylated products were detected upon termination of reactions with EDTA and the addition of Streptavidin coated beads.
Assay plates: 96-well MultiScreen 0.65 um filter plates (Millipore Cat. No.: MADVNOB10)
BSA: Bovine Serum Albumin Fraction V, fatty acid free (Roche Diagnostics GmbH, Cat. No. 9100221) diluted to a final concentration of 0.1%
Assay Dilution Buffer (ADB): 50 mM HEPES, 0.1 mM EGTA, 0.1 mM Na Vanadate, 0.1 mM β-glycerophosphate, 10 mM MgCl2, 1 mM DTT, 0.1% BSA, pH 7.5
Bead wash buffer: 10 g/L PBS (Phosphate buffered saline) with 2M NaCl+1% phosphoric acid.
DMSO and the mixture was incubated for 10 min at RT.
The kinase reaction was initiated by the addition of 10 μL 4× substrate cocktail containing the DYE peptide substrate [0 or 5 μM], ATP [20 μM] and ^33PγATP [2 μCi/r×n]. After incubation at 30° C. for 15 min, the reaction was terminated by the transfer of 25 μL of the reaction sample to a 96 well 0.65 μm Millipore MADVNOB membrane/plate containing 200 μL 5 mM EDTA and 20% Streptavidine coated beads in PBS.
After the last wash membrane/plates were transferred to an adaptor plate, heat dried for 15 min at 60° C., and 50 μL scintillation cocktail was added to each well and 4 h later the amount of radioactivity was counted in a top counter.

Row | SMILES | IC50 [nM]
1 | COc1ccc(Nc2nc(-c3cccc(C(F)=Cc4ccc(C(=O)O)cc4)c3)nc3scnc23)cc1OC (stereo in doubt) [Compound I-31, 4-((E)-2-{3-[7-(3,4-Dimethoxy-phenylamino)-thiazolo[5,4-d]pyrimidin-5-yl]-phenyl}-2-fluoro-vinyl)-benzoic acid] | 592
2 | COc1ccc(Nc2nc(-c3cccc(C(=O)O)c3)nc3scnc23)cc1OC [Compound I-1, 3-[7-(3,4-Dimethoxy-phenylamino)-thiazolo[5,4-d]pyrimidin-5-yl]-benzoic acid] | 421
3 | COc1ccc(Nc2nc(-c3cccc(C(=O)N4CCCNCC4)c3)nc3scnc23)cc1OC [Compound I-2, [1,4]Diazepan-1-yl-{3-[7-(3,4-dimethoxy-phenylamino)-thiazolo[5,4-d]pyrimidin-5-yl]-phenyl}-methanone] | 1110
4 | CNC(=O)c1ccc(NC(=O)c2cccc(-c3nc(Nc4ccc(OC)c(OC)c4)c4ncsc4n3)c2)cc1 [Compound I-3, 3-(7-(3,4-Dimethoxyphenylamino)thiazolo[5,4-d]pyrimidin-5-yl)-N-(4-(methylcarbamoyl)phenyl)benzamide] | 71
5 | COc1ccc(Nc2nc(N3CCC(NC(=O)c4ccc5c(c4)NC(=O)C5)C3)nc3scnc23)cc1OC (centres unmarked) [Compound I-8, N-(1-(7-(3,4-Dimethoxyphenylamino)thiazolo[5,4-d]pyrimidin-5-yl)pyrrolidin-3-yl)-2-oxoindoline-6-carboxamide] | 882
6 | COc1ccc(Nc2nc(N3CCC(NC(=O)c4ccc(C(=O)O)c(O)c4)C3)nc3scnc23)cc1OC (centres unmarked) [Compound I-9, 4-(1-(7-(3,4-Dimethoxyphenylamino)thiazolo[5,4-d]pyrimidin-5-yl)pyrrolidin-3-ylcarbamoyl)-2-hydroxybenzoic acid] | 40
7 | COc1ccc(Nc2nc(N3CCC(NC(=O)c4ccc(C(=O)O)c(OC)c4)C3)nc3scnc23)cc1OC (centres unmarked) [Compound I-10, 4-(1-(7-(3,4-Dimethoxyphenylamino)thiazolo[5,4-d]pyrimidin-5-yl)pyrrolidin-3-ylcarbamoyl)-2-methoxybenzoic acid] | 111
8 | COc1ccc(Nc2nc(N3CCC(NC(=O)c4ccc5cn[nH]c5c4)C3)nc3scnc23)cc1OC (centres unmarked) [Compound I-11, N-(1-(7-(3,4-Dimethoxyphenylamino)thiazolo[5,4-d]pyrimidin-5-yl)pyrrolidin-3-yl)-1H-indazole-6-carboxamide] | 406
9 | COc1ccc(Nc2nc(N3CCC(NC(=O)c4cnccn4)C3)nc3scnc23)cc1OC (centres unmarked) [Compound I-12, N-(1-(7-(3,4-Dimethoxyphenylamino)thiazolo[5,4-d]pyrimidin-5-yl)pyrrolidin-3-yl)pyrazine-2-carboxamide] | 933
10 | COc1ccc(Nc2nc(N3CCC(NC(=O)c4ccc(N)nc4)C3)nc3scnc23)cc1OC (centres unmarked) [Compound I-13, 6-Amino-N-{1-[7-(3,4-dimethoxy-phenylamino)-thiazolo[5,4-d]pyrimidin-5-yl]-pyrrolidin-3-yl}-nicotinamide] | 566
11 | COc1ccc(Nc2nc(N3CCC(NC(=O)c4ccc5[nH]c(=O)[nH]c5c4)C3)nc3scnc23)cc1OC (centres unmarked) [Compound I-14, N-(1-(7-(3,4-Dimethoxyphenylamino)thiazolo[5,4-d]pyrimidin-5-yl)pyrrolidin-3-yl)-2-oxo-2,3-dihydro-1H-benzo[d]imidazole-5-carboxamide] | 487
12 | COc1ccc(Nc2nc(-c3cccc(C(=O)Nc4ccc(-c5nnc(S)o5)cc4)c3)nc3scnc23)cc1OC [Compound I-15, 3-[7-(3,4-Dimethoxy-phenylamino)-thiazolo[5,4-d]pyrimidin-5-yl]-N-[4-(5-mercapto-[1,3,4]oxadiazol-2-yl)-phenyl]-benzamide] | 45
13 | COc1ccc(Nc2nc(-c3cccc(C(=O)Nc4ccc(C(=O)O)c(OC)c4)c3)nc3scnc23)cc1OC [Compound I-16, 4-(3-(7-(3,4-Dimethoxyphenylamino)thiazolo[5,4-d]pyrimidin-5-yl)benzamido)-2-methoxybenzoic acid] | 12
14 | COc1ccc(Nc2nc(-c3cccc(C(=O)Nc4ccc5[nH]ncc5c4)c3)nc3scnc23)cc1OC [Compound I-18, 3-[7-(3,4-Dimethoxy-phenylamino)-thiazolo[5,4-d]pyrimidin-5-yl]-N-(1H-indazol-5-yl)-benzamide] | 980
15 | COc1ccc(Nc2nc(-c3cccc(C(=O)Nc4ccc5cn[nH]c5c4)c3)nc3scnc23)cc1OC [Compound I-19, 3-[7-(3,4-Dimethoxy-phenylamino)-thiazolo[5,4-d]pyrimidin-5-yl]-N-(1H-indazol-6-yl)-benzamide] | 56
16 | COc1ccc(Nc2nc(-c3ccc(C(=O)NCCc4ccncc4)cc3)nc3scnc23)cc1OC [Compound I-20, 4-[7-(3,4-Dimethoxy-phenylamino)-thiazolo[5,4-d]pyrimidin-5-yl]-N-(2-pyridin-4-yl-ethyl)-benzamide] | 566
17 | COc1ccc(Nc2nc(N3CCC(C(=O)NCCc4ccncc4)CC3)nc3scnc23)cc1OC [Compound I-21, 1-(7-(3,4-Dimethoxyphenylamino)thiazolo[5,4-d]pyrimidin-5-yl)-N-(2-(pyridin-4-yl)ethyl)piperidine-4-carboxamide] | 1850
18 | COc1ccc(Nc2nc(N3CCC(C(=O)NCCc4cc[nH]c(=O)c4)CC3)nc3scnc23)cc1OC [Compound I-22, 1-(7-(3,4-Dimethoxyphenylamino)thiazolo[5,4-d]pyrimidin-5-yl)-N-(2-(2-oxo-1,2-dihydropyridin-4-yl)ethyl)piperidine-4-carboxamide] | 4880
19 | COc1ccc(Nc2nc(-c3ccc(C(=O)NCCc4cc[nH]c(=O)c4)cc3)nc3scnc23)cc1OC [Compound I-23, 4-(7-(3,4-Dimethoxyphenylamino)thiazolo[5,4-d]pyrimidin-5-yl)-N-(2-(2-oxo-1,2-dihydropyridin-4-yl)ethyl)benzamide] | 930
20 | COc1ccc(Nc2nc(-c3ccc(C(=O)NCCc4ccn(C)c(=O)c4)cc3)nc3scnc23)cc1OC [Compound I-24, 4-[7-(3,4-Dimethoxy-phenylamino)-thiazolo[5,4-d]pyrimidin-5-yl]-N-[2-(1-methyl-2-oxo-1,2-dihydro-pyridin-4-yl)-ethyl]-benzamide] | 916
21 | COC(=O)c1cccc(-c2nc(Nc3cccc(S(C)(=O)=O)c3)c3ncsc3n2)c1 [Compound I-26, Methyl 3-(7-(3-(methylsulfonyl)phenylamino)thiazolo[5,4-d]pyrimidin-5-yl)benzoate] | 2060
22 | CS(=O)(=O)c1cccc(Nc2nc(-c3cccc(C(=O)O)c3)nc3scnc23)c1 [Compound I-27, 3-[7-(3-Methanesulfonyl-phenylamino)-thiazolo[5,4-d]pyrimidin-5-yl]-benzoic acid] | 4610
23 | COCC1CCCN1c1cccc(Nc2nc(-c3cccc(C(=O)O)c3)nc3scnc23)c1 (centres unmarked) [Compound I-28, 3-{7-[3-(2-Methoxymethyl-pyrrolidin-1-yl)-phenylamino]-thiazolo[5,4-d]pyrimidin-5-yl}-benzoic acid] | 3130
24 | COc1ccc(Nc2nc(-c3cccc(CNc4ccc(C(=O)OC(C)(C)C)cc4)c3)nc3scnc23)cc1OC [Compound I-29, tert-Butyl 4-(3-(7-(3,4-dimethoxyphenylamino)thiazolo[5,4-d]pyrimidin-5-yl)benzylamino)benzoate] | 1490
25 | COc1ccc(Nc2nc(-c3cccc(CNc4ccc(C(=O)O)cc4)c3)nc3scnc23)cc1OC [Compound I-30, 4-(3-(7-(3,4-Dimethoxyphenylamino)thiazolo[5,4-d]pyrimidin-5-yl)benzylamino)benzoic acid] | 18
26 | COc1ccc(Nc2nc(-c3cccc(/C=C/c4ccc(C(=O)O)cc4)c3)nc3scnc23)cc1OC [Compound I-32, (E)-4-(3-(7-(3,4-Dimethoxyphenylamino)thiazolo[5,4-d]pyrimidin-5-yl)styryl)benzoic acid] | 60
27 | COc1ccc(Nc2nc(-c3cccc(CCc4ccc(C(=O)O)cc4)c3)nc3scnc23)cc1OC [Compound I-33, 4-(3-(7-(3,4-Dimethoxyphenylamino)thiazolo[5,4-d]pyrimidin-5-yl)phenethyl)benzoic acid] | 350
28 | O=C(O)c1cccc(-c2nc(Nc3cccc(N4C[C@H]5CC[C@@H](C4)O5)c3)c3ncsc3n2)c1 [Compound I-34, 3-{7-[(1R,5S)-3-(8-Oxa-3-aza-bicyclo[3.2.1]oct-3-yl)-phenylamino]-thiazolo[5,4-d]pyrimidin-5-yl}-benzoic acid] | 2470
29 | COc1ccc(Nc2nc(N3CCC(NC(=O)c4ccc5[nH]ncc5c4)C3)nc3scnc23)cc1OC (centres unmarked) [Compound I-35, N-(1-(7-(3,4-Dimethoxyphenylamino)thiazolo[5,4-d]pyrimidin-5-yl)pyrrolidin-3-yl)-1H-indazole-5-carboxamide] | 418
